# Measured values taken from patent publication US9814730B2 (FLAMINA HOLDING AG, priority 2013, dated 2017).
# Test system: autocrine HCG production in adult cells
# Test: Inhibition of autocrine HCG production in adult cells (in vitro experiments)
# Format: cell-based, human
# Conditions: very low amount of active agent
# Procedure: Extrapolations of in vitro experiments indicate that already 0.1 mg to 2 mg per kg body weight and per year, preferably 0.5 mg to 1 mg per kg body weight and per year of the active agent are sufficient. However, as detailed below the dosage can be up to a factor 5 higher and can thus range between 0.1 mg to 10 mg per kg body weight and per year.
compound,measurement,value
"C/C=C\[C@]1(O)CC[C@H]2[C@@H]3CCC4=CC(=O)CCC4=C3[C@@H](c3ccc(N(C)C)cc3)C[C@@]21C [RU534, Aglepristone]",inhibition of autocrine HCG production,successfully achieved
